Measurements: patent publication US20240270762A1, “PENICILLIN-BINDING PROTEIN INHIBITORS” (priority 2021, published 2024)
In brackets after ≈: the same amount, converted by molar mass. Where two headings read alike, the source gives them in different places.

Experiments:
[1] = target: T1, PBP3 from Escherichia coli (K-12) (Escherichia coli, UniProt P0AD68); assay: Bocillin-FL fluorescence polarization competition binding, E. coli PBP3
T1 construct: made in house
Procedure, shortened: (§1)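 Purified PBPs pre-incubated with inhibitor (E. coli PBP3 1.5 μM, 30 min; P. aeruginosa PBP3 0.75 μM, A. baumannii PBP1a 1 μM and PBP3 0.2 μM, 15 min), then Bocillin-FL 0.1 μM (0.05 μM for PBP1a) added; FP read up to 60 min. EC50 = concentration halving bound Bocillin-FL.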

[2] = target: T2, PBP3 from Pseudomonas aeruginosa (PAO1) (Pseudomonas aeruginosa, UniProt G3XD46); assay: Bocillin-FL fluorescence polarization competition binding, P. aeruginosa PBP3; conditions: Binding affinity to P. aeruginosa PBP3; fluorescence polarization competition binding assay using Bocillin-FL; read-out: P. aeruginosa PBP3 Potency
T2 construct: made in house
T2 sequence (G3XD46 whole entry): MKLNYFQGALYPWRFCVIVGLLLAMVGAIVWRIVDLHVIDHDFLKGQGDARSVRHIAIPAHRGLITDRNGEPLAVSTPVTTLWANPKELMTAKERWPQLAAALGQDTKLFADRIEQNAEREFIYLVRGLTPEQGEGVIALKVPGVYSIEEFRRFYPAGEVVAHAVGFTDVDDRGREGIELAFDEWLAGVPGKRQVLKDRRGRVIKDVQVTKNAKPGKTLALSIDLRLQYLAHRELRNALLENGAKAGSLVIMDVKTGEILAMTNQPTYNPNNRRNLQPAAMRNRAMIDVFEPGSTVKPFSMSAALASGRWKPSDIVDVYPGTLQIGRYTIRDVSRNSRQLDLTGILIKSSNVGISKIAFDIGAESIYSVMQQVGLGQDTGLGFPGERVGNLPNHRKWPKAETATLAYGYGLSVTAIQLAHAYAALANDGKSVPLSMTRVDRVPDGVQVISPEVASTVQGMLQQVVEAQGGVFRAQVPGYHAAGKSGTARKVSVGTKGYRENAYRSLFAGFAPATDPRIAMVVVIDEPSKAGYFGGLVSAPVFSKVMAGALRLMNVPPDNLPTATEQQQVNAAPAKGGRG
Procedure, shortened: as §1

[3] = test system: N. gonorrhoeae ATCC 49226; assay: Liquid broth MIC in Fastidious broth; conditions: Neisseria gonorrhoeae
N. gonorrhoeae FA1090 = assay: Liquid broth MIC in Fastidious broth; conditions: Neisseria gonorrhoeae
N. gonorrhoeae MS11 = assay: Liquid broth MIC in Fastidious broth; conditions: Neisseria gonorrhoeae
N. gonorrhoeae WHO G = assay: Liquid broth MIC in Fastidious broth; conditions: Neisseria gonorrhoeae
N. gonorrhoeae WHO L = assay: Liquid broth MIC in Fastidious broth; conditions: Neisseria gonorrhoeae
N. gonorrhoeae WHO Z = assay: Liquid broth MIC in Fastidious broth; conditions: Neisseria gonorrhoeae
N. gonorrhoeae CDC-0197 = assay: Liquid broth MIC in Fastidious broth; conditions: Neisseria gonorrhoeae
P. aeruginosa ATCC 27853 = assay: microbe, parasite or virus in culture; format: cell-based; conditions: Pseudomonas aeruginosa, ATCC27853, read-out: Minimum inhibitory concentration, P. aeruginosa ATCC 27853
A. baumannii ATCC 19606 = assay: microbe, parasite or virus in culture; format: cell-based; conditions: Acinetobacter baumannii, ATCC19606, read-out: MIC, A. baumannii ATCC 19606
[4] = test system: P. aeruginosa (ΔmexAB-oprM); assay: Broth microdilution MIC in iron-depleted CAMHB (IDM); format: cell-based; conditions: Pseudomonas aeruginosa; iron-depleted CAMHB (IDM); […]; read-out: Minimum inhibitory concentration, P. aeruginosa ΔmexAB-oprM
A. baumannii CDC-0045 = assay: microbe, parasite or virus in culture; format: cell-based; conditions: Acinetobacter baumannii, CDC0045, read-out: MIC, A. baumannii CDC-0045
[5] = test system: B. thailandensis ATCC 700388; assay: microbe, parasite or virus in culture; format: cell-based; conditions: Burkholderia thailandensis, ATCC700388, read-out: Minimum inhibitory concentration (MIC), B. thailandensis ATCC 700388
[6] = test system: B. humptydooensis ATCC BAA-2767; assay: microbe, parasite or virus in culture; format: cell-based; conditions: Burkholderia humptydooensis, ATCCBAA2767, read-out: Minimum inhibitory concentration (MIC), B. humptydooensis ATCC BAA-2767
[7] = ATCC49226, read-out: Minimum Inhibitory Concentration (MIC), N. gonorrhoeae ATCC 49226
[8] = FA1090, read-out: Minimum Inhibitory Concentration (MIC), N. gonorrhoeae FA 1090
[9] = MS11, read-out: Minimum Inhibitory Concentration (MIC), N. gonorrhoeae MS11
[10] = read-out: Minimum Inhibitory Concentration (MIC), N. gonorrhoeae WHO G
[11] = read-out: Minimum Inhibitory Concentration (MIC), N. gonorrhoeae WHO L
[12] = read-out: Minimum Inhibitory Concentration (MIC), N. gonorrhoeae WHO Z
[13] = CDC0197, read-out: Minimum Inhibitory Concentration (MIC), N. gonorrhoeae CDC-0197
[14] = ATCC49226, read-out: Minimum Inhibitory Concentration, ATCC 49226
[15] = FA1090, read-out: Minimum Inhibitory Concentration, FA 1090
[16] = MS11, read-out: Minimum Inhibitory Concentration, MS11
[17] = read-out: Minimum Inhibitory Concentration, WHO G
[18] = read-out: Minimum Inhibitory Concentration, WHO L
[19] = read-out: Minimum Inhibitory Concentration, WHO Z
[20] = CDC0197, read-out: Minimum Inhibitory Concentration, CDC-0197

T1 sequence (P0AD68 1-577): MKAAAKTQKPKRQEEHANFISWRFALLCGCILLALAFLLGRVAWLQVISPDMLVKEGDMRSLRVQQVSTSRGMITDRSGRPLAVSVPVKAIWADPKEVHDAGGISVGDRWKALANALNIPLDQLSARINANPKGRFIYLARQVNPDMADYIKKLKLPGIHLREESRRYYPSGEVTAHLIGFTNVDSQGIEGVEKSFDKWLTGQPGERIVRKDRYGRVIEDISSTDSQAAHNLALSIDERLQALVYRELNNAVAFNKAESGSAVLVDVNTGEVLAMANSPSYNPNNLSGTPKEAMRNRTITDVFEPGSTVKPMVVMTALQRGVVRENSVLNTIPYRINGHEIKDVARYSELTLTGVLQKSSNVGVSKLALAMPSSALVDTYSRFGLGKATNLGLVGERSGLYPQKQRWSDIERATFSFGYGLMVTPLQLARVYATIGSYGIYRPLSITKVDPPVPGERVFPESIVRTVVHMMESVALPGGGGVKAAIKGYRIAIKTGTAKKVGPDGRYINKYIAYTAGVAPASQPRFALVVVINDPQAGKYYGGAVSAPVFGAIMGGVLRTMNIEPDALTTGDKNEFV

Compound	EC50 [1] [µM]	IC50 [2] [µM]	MIC [3, 7] [µg/mL]	MIC (N. gonorrhoeae FA1090; [8]) [µg/mL]	MIC (N. gonorrhoeae MS11; [9]) [µg/mL]	MIC (N. gonorrhoeae WHO G; [10]) [µg/mL]	MIC (N. gonorrhoeae WHO L; [11]) [µg/mL]	MIC (N. gonorrhoeae WHO Z; [12]) [µg/mL]	MIC (N. gonorrhoeae CDC-0197; [13]) [µg/mL]	MIC (P. aeruginosa ATCC 27853) [µg/mL]	MIC (A. baumannii ATCC 19606) [µg/mL]	MIC [4] [µg/mL]	MIC (A. baumannii CDC-0045) [µg/mL]	MIC [5] [µg/mL]	MIC [6] [µg/mL]	further results
O=C(O)c1cccc2c1OB(O)[C@@H](NC(=O)[C@@H](NC(=O)c1cnc3n(c1=O)CCS3)c1ccc(P(=O)(O)O)cc1)C2 (single isomer, unassigned) [Example 196]	> 250	50 to 250	16 to 32 (≈ 26.7 to 53.3 µM)	4 to 8 (≈ 6.66 to 13.3 µM)	16 to 32 (≈ 26.7 to 53.3 µM)	16 to 32 (≈ 26.7 to 53.3 µM)	16 to 32 (≈ 26.7 to 53.3 µM)	16 to 32 (≈ 26.7 to 53.3 µM)	16 to 32 (≈ 26.7 to 53.3 µM)							
O=C(O)c1cccc2c1OB(O)[C@@H](NC(=O)[C@H](NC(=O)c1cnc3n(c1=O)CCS3)c1ccc(P(=O)(O)O)cc1)C2 (single isomer, unassigned) [Example 197]	10 to 50	< 10	16 to 32 (≈ 26.7 to 53.3 µM)	1 to 2 (≈ 1.67 to 3.33 µM)	16 to 32 (≈ 26.7 to 53.3 µM)	4 to 8 (≈ 6.66 to 13.3 µM)	16 to 32 (≈ 26.7 to 53.3 µM)	16 to 32 (≈ 26.7 to 53.3 µM)	16 to 32 (≈ 26.7 to 53.3 µM)							
CCN1CCN(C(=O)NC(C(=O)N[C@H]2Cc3cccc(C(=O)O)c3OB2O)c2ccc(P(=O)(O)O)c(F)c2O)C(=O)C1=O (stereo partly drawn) [Example 198, (3R)-3-(2-(4-ethyl-2,3-dioxopiperazine-1-carboxamido)-2-(3-fluoro-2-hydroxy-4-phosphonophenyl)acetamido)-2-hydroxy-3,4-dihydro-2H-benzo[e][1,2]oxaborinine-8-carboxylic acid]	10 to 50	10 to 50	< 1	< 1	< 1	< 1	1 to 2 (≈ 1.61 to 3.21 µM)	1 to 2 (≈ 1.61 to 3.21 µM)	< 1							
O=C(NCCN1CCN(C(=O)NC(C(=O)N[C@H]2Cc3ccc(F)c(C(=O)O)c3OB2O)c2cc(F)c(O)c(O)c2Cl)C(=O)C1=O)c1ccccc1 (stereo partly drawn) [Example 207, (3R)-3-(2-(4-(2-benzamidoethyl)-2,3-dioxopiperazine-1-carboxamido)-2-(2-chloro-5-fluoro-3,4-dihydroxyphenyl)acetamido)-7-fluoro-2-hydroxy-3,4-dihydro-2H-benzo[e][1,2]oxaborinine-8-carboxylic acid]	< 10		16 to 32 (≈ 21.9 to 43.8 µM)	4 to 8 (≈ 5.48 to 11 µM)	16 to 32 (≈ 21.9 to 43.8 µM)	16 to 32 (≈ 21.9 to 43.8 µM)	> 64	16 to 32 (≈ 21.9 to 43.8 µM)	16 to 32 (≈ 21.9 to 43.8 µM)	2 to 4 (≈ 2.74 to 5.48 µM)	2 to 4 (≈ 2.74 to 5.48 µM)	< 1	2 to 4 (≈ 2.74 to 5.48 µM)	8 to 16 (≈ 11 to 21.9 µM)	< 1	
O=C(O)c1c(F)ccc2c1OB(O)[C@@H](NC(=O)[C@H](NC(=O)N1CCN(CCNC(=O)[C@@H]3CCCN3)C(=O)C1=O)c1cc(F)c(O)c(O)c1Cl)C2 [Example 229, (R)-3-((R)-2-(2-chloro-5-fluoro-3,4-dihydroxyphenyl)-2-(2,3-dioxo-4-(2-((S)-pyrrolidine-2-carboxamido)ethyl)piperazine-1-carboxamido)acetamido)-7-fluoro-2-hydroxy-3,4-dihydro-2H-benzo[e][1,2]oxaborinine-8-carboxylic acid]	10 to 50	< 10	16 to 32 (≈ 22.1 to 44.3 µM)	4 to 8 (≈ 5.53 to 11.1 µM)	16 to 32 (≈ 22.1 to 44.3 µM)	4 to 8 (≈ 5.53 to 11.1 µM)	> 64	16 to 32 (≈ 22.1 to 44.3 µM)	16 to 32 (≈ 22.1 to 44.3 µM)	< 1	< 1	< 1	< 1	< 1		
O=C(CN1CCN(C(=O)NC(C(=O)N[C@H]2Cc3ccc(F)c(C(=O)O)c3OB2O)c2cc(F)c(O)c(O)c2Cl)C(=O)C1=O)NCc1ccc(O)cc1 (stereo partly drawn) [Example 236, (3R)-3-(2-(2-chloro-5-fluoro-3,4-dihydroxyphenyl)-2-(4-(2-((4-hydroxybenzyl)amino)-2-oxoethyl)-2,3-dioxopiperazine-1-carboxamido)acetamido)-7-fluoro-2-hydroxy-3,4-dihydro-2H-benzo[e][1,2]oxaborinine-8-carboxylic acid]	< 10	< 10									< 1		8 to 16 (≈ 10.7 to 21.5 µM)	8 to 16 (≈ 10.7 to 21.5 µM)	2 to 4 (≈ 2.68 to 5.36 µM)	
O=C(CN1CCN(C(=O)NC(C(=O)N[C@H]2Cc3ccc(F)c(C(=O)O)c3OB2O)c2cc(F)c(O)c(O)c2Cl)C(=O)C1=O)NCc1ccccc1 (stereo partly shown) [Example 238]	< 10	< 10	16 to 32 (≈ 21.9 to 43.8 µM)	1 to 2 (≈ 1.37 to 2.74 µM)	16 to 32 (≈ 21.9 to 43.8 µM)	4 to 8 (≈ 5.48 to 11 µM)	> 64	16 to 32 (≈ 21.9 to 43.8 µM)	16 to 32 (≈ 21.9 to 43.8 µM)	2 to 4 (≈ 2.74 to 5.48 µM)	< 1	< 1		8 to 16 (≈ 11 to 21.9 µM)	> 128	
O=C(NCCCN1CCN(C(=O)N[C@@H](C(=O)N[C@H]2Cc3ccc(F)c(C(=O)O)c3OB2O)c2cc(F)c(O)c(O)c2Cl)C1=O)c1ccccc1 [Example 253, (R)-3-((R)-2-(3-(3-benzamidopropyl)-2-oxoimidazolidine-1-carboxamido)-2-(2-chloro-5-fluoro-3,4-dihydroxyphenyl)acetamido)-7-fluoro-2-hydroxy-3,4-dihydro-2H-benzo[e][1,2]oxaborinine-8-carboxylic acid]	< 10	< 10								2 to 4 (≈ 2.79 to 5.59 µM)	< 1	< 1	< 1	2 to 4 (≈ 2.79 to 5.59 µM)		MIC [3, 14]: 16 to 32 µg/mL (≈ 22.4 to 44.7 µM); MIC (N. gonorrhoeae FA1090; [15]): 1 to 2 µg/mL (≈ 1.4 to 2.79 µM); MIC (N. gonorrhoeae MS11; [16]): 16 to 32 µg/mL (≈ 22.4 to 44.7 µM); MIC (N. gonorrhoeae WHO G; [17]): 16 to 32 µg/mL (≈ 22.4 to 44.7 µM); MIC (N. gonorrhoeae WHO L; [18]): > 64 µg/mL; MIC (N. gonorrhoeae WHO Z; [19]): 16 to 32 µg/mL (≈ 22.4 to 44.7 µM); MIC (N. gonorrhoeae CDC-0197; [20]): > 64 µg/mL
O=C(NCCS(=O)(=O)N1CCN(C(=O)NC(C(=O)N[C@H]2Cc3ccc(F)c(C(=O)O)c3OB2O)c2cc(F)c(O)c(O)c2Cl)C1=O)c1ccccc1 (stereo partly drawn) [Example 260, (3R)-3-(2-(3-((2-benzamidoethyl)sulfonyl)-2-oxoimidazolidine-1-carboxamido)-2-(2-chloro-5-fluoro-3,4-dihydroxyphenyl)acetamido)-7-fluoro-2-hydroxy-3,4-dihydro-2H-benzo[e][1,2]oxaborinine-8-carboxylic acid]	< 10	< 10								2 to 4 (≈ 2.61 to 5.22 µM)	< 1	< 1	< 1	> 128		MIC [3, 14]: 16 to 32 µg/mL (≈ 20.9 to 41.8 µM); MIC (N. gonorrhoeae FA1090; [15]): 4 to 8 µg/mL (≈ 5.22 to 10.4 µM); MIC (N. gonorrhoeae MS11; [16]): 16 to 32 µg/mL (≈ 20.9 to 41.8 µM); MIC (N. gonorrhoeae WHO G; [17]): 16 to 32 µg/mL (≈ 20.9 to 41.8 µM); MIC (N. gonorrhoeae WHO L; [18]): > 64 µg/mL; MIC (N. gonorrhoeae WHO Z; [19]): 16 to 32 µg/mL (≈ 20.9 to 41.8 µM); MIC (N. gonorrhoeae CDC-0197; [20]): 16 to 32 µg/mL (≈ 20.9 to 41.8 µM)
